# Measurements: US20250179024A1, “AMYLOID AND ASSOCIATED PATHOLOGY MODULATORS AND METHODS THEREOF” (Jawaharlal Nehru Centre for Advanced Scientific Research, priority 2022, published 2025)
# Tests used:
# [1] = biological target: T1, preformed Aβ fibrillar aggregates (Homo sapiens, UniProt P05067); test: Dot blot assay of dissolution of preformed Aβ fibrillar aggregates; format: biochemical; conditions: Aβ aggregates 10 μM; for dissolution efficiency: NMIs 20 μM, 48 h
# T1 construct: is a 42 amino acid proteolytic product from the amyloid precursor protein; purchased Invitrogen
# Experimental: Aggregation modulation by toxic Aβ aggregates were assessed and were quantified by dot blot assay. Aβ peptide (10 μM) was dissolved in phosphate buffered saline (PBS, 10 mM, pH 7.4), incubated alone and with NMIs (20 μM) at 37° C. for 48 h. For concentration dependent inhibition, 10 μM Aβ peptide was incubated with 1, 2, 5, 10 and 20 μM of NMIs and incubated. Samples for oligomer inhibition studies were prepared by incubating Aβ alone and with NMIs at 4° C. for 24 and subjected to dot blot analysis. For dissolution studies, Aβ peptide alone was incubated in PBS for 48 h to prepare fibrils and then incubated with NMIs further for 48 h. For dot blot experiment, 5 μL of sample was blotted on activated PVDF (polyvinylidene fluoride) membrane in triplicates and air dried. The membrane was blocked with skimmed milk powder for 1 h at room temperature. The blot paper was washed with tris-buffered saline with 0.01% Tween 20 (TBST) three times for 5 min. Blot paper was treated with fibril specific OC primary antibody (Rabbit, 1:1000 dilution) overnight at 4° C. For oligomers blot A11 anti-oligomer antibody (Rabbit 1:1000) was used. Blot was washed thrice with TBST and treated with HRP-conjugated antirabbit secondary antibody (1:5000 dilutions) for 1 h at room temperature. The bolt was washed thrice for 5 min with TBST and developed with ECL reagent (Biorad) and imaged with ChemiDoc BioRad gel documentation system in autoexposure mode. Blots were analyzed and quantified by ImageJ software. The fibrillar aggregates were formed by incubating Aβ peptide (10 μM) in PBS (pH 7.4) at 37° C. for 48 h. The aggregate samples were treated with NMIs (20 μM) for 48 h followed by dot blot analysis. […] These studies confirmed that M3 as the potential candidate to dissolve Aβ fibrillar aggregates to possibly nontoxic species.
# [2] = tested on: SH-SY5Y cells; test: Neuronal cell rescue from Aβ toxicity (MTT); format: cell-based; conditions: Aβ 10 μM
# Experimental: Cell rescue from Aβ toxicity by NMIs were assessed in SH-SY5Y cells. The cells were seeded into 96 well plate at cell density of 25,000 cells per well and after 24 h the media was replaced with DMEM-F12 with low serum (2.5% FBS). After 6 h, cells were treated with Aβ (10 μM) alone and with NMIs (20 μM) in low serum media. Different concentrations of compound (10, 20 and 50 μM) were used to treat cells. For metal dependent studies, Aβ (10 μM) with metals (20 μM) in the absence and presence of NMIs (20 μM) was treated. The cells were incubated for 30 h and MTT assay was performed to calculate the percentage cell viability.
# Compounds of the present disclosure (M1 to M4) were evaluated for their ability to rescue neuronal cells from Aβ toxicity by MTT assay.
# Further, the effect of concentration of compounds of the present disclosure on the cell rescue was assessed. […] The ability of NMIs to rescue cells from metal-dependent Aβ toxicity were assessed in the presence of Cu (II) and Zn (II). Cells were treated with Aβ (10 μM) along with metal ions (20 μM) and NMIs (20 μM) for 30 h. Aβ in the presence of Cu (II) reduced cell viability to ˜62% and M3 treatment had rescued cells with viability to 85% (FIG. 12C). Aβ with Zn (II) viability reduced to ˜61% and M3 treatment rescued cells by improving the viability to ˜79% (FIG. 12D). […] These in-cellulo experiments confirmed the ability of M3 to effectively rescue neuronal cells from metal-independent and dependent Aβ toxicity.
# [3] = tested on: SH-SY5Y cells; test: In cellulo antioxidant assay, rescue from H2O2 induced cell death (MTT); format: cell-based; conditions: H2O2 200 μM, NMIs 20 μM, 18 h; H2O2 treated cells ~72%
# Experimental: To assess in cellulo antioxidant activity of NMIs, rescue of neuronal cells from H2O2 induced cell death was assessed by MTT assay. The cells were seeded onto 96 well plate at seeding density of 25,000 cells per well. After 24 h cells were treated with H2O2 (200 μM) alone and with NMIs (20 μM) for 18 h. H2O2 treatment result in neuronal cell death and potent antioxidant molecule rescue cells. The cell viability was assessed by MTT assay and percentage cell viability was calculated. ABTS (λmax at 734 nm) radical scavenging assay assessed the ability of NMIs to quench nitrogen radicals (RNS). […] These in vitro experiments have established M1 and M3 as effective antioxidants and further their ability to scavenge ROS in cellulo was assessed. Treatment of cells with H2O2 was known to generate ROS and cause DNA damage, protein oxidation, lipid peroxidation and mitochondrial dysfunction, which led to cell death. The neuronal cells were treated with H2O2 (200 μM) alone and with NMIs (20 μM) for 18 h and cell viability by MTT assay. […] The production of excess ROS by Aβ results in oxidative stress and elicits stress response.
# [4] = Metal chelation by UV-visible absorbance and fluorescence spectra; format: physicochemical; conditions: for interaction with Cu (II) and Zn (II), change in absorbance spectra / chelation among different physiologically relevant metals, absorbance: NMIs 20 μM; for chelation among different physiologically relevant metals, absorbance: metals 40 μM
# Source text: The compounds of the present disclosure (NMIs) were designed to chelate with metals (Cu and Zn) and alleviate the metal-dependent Aβ toxicity. […] The change in absorbance and fluorescence spectra of NMIs were monitored to understand the interaction with Cu(II) and Zn(II). […] The fluorescence intensity of M3 at 525 nm decreased with the increasing concentration of Cu(II) or Zn(II) (FIGS. 6(A & B)).
# [5] = modulators 20 μM, Aβ alone ~52%, FIG. 12A
# T1 sequence (P05067 672-713 limits assumed): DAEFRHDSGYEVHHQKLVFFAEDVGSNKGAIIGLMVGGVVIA
Compound,EC50 [1] [µM],dissolution ([1]; 0.1 molar ratio) [%],dissolution ([1]; 0.2 molar ratio) [%],dissolution ([1]; 0.5 molar ratio) [%],dissolution ([1]; 1 molar ratio) [%],dissolution ([1]; 2 molar ratio) [%],dissolution efficiency [1] [%],"cell viability ([2]; 50 μM compound, control 54%, FIG. 12B)","cell viability [2, 5]","viability at 5 µM ([2]; Homo sapiens, SH-SY5Y, 5 μM compound, control 54%, FIG. 12B) [%]","viability at 10 µM ([2]; Homo sapiens, SH-SY5Y, 10 μM compound, control 54%, FIG. 12B) [%]","viability at 20 µM ([2]; Homo sapiens, SH-SY5Y, 20 μM compound, control 54%, FIG. 12B) [%]",cell viability [3] [%],"fluorescence intensity at 525 nm with increasing concentration of Cu(II) or Zn(II) ([4]; 20 μM, Cu or Zn 2.5 to 40 μM)","interaction with Cu (II) and Zn (II), change in absorbance spectra ([4]; Cu or Zn 2.5 to 40 μM)","chelation among different physiologically relevant metals, absorbance [4]"
"O=C1c2cccc3c(N(Cc4ccccn4)Cc4ccccn4)ccc(c23)C(=O)N1CCc1ccc(O)c(O)c1 [M3, 6-(bis(pyridin-2-ylmethyl)amino)-2-(3,4-dihydroxyphenethyl)-1H-benzo[de]isoquinoline-1,3(2H)-dione]",7.87,25,46,48,50,59,52,near-complete rescue,~75%,68,70,83,91,decreased,effectively interacted with Cu (II) and Zn (II),selectively chelated with Cu(II) and Zn (II)
"CN(C)c1ccc2c3c(cccc13)C(=O)N(CCc1ccc(O)c(O)c1)C2=O [M1, 2-(3,4-dihydroxyphenethyl)-6-(dimethylamino)-1H-benzo[de]isoquinoline-1,3(2H)-dione]",–,–,–,–,–,–,~44,–,lowered alleviation of the Aβ toxicity,–,–,–,89,–,effectively interacted with Cu (II) and Zn (II),selectively chelated with Cu(II) and Zn (II)
